From US11040028B2, “Penicinotam derivative, preparation method and use thereof” (OCEAN UNIVERSITY OF CHINA, priority 2017, dated 2021)
Where two headings read alike, the source gives them in different places.

How the values were obtained:
Assay type in all cases: cell-based
BHK-21 cells = experiment: Anti-fibrosis activity test: inhibition of BHK-21 cell proliferation (CCK-8); settings: Mesocricetus auratus, BHK-21, 48 h
Protocol: (§1) BHK-21 cells in exponential growth phase were selected. After the fusion growth reached 85-95%, normal passage method was utilized to digest and collect the cells, followed by cell counting and adjusting the cell density to 2×10^4 cells/mL. The cells were seeded into 96-well plates, 100 μL/well, and were incubated under the condition of 5% CO2 at 37° C.
(§2) The supernatant was removed after the cells had adhered to the wall for 24 hours. The culture solution containing the prepared compounds at different concentrations were added to the wells, 100 μL/well, each concentration in triplicate. The cells were subcultured for 48 hours after administration. Commercially available pirfenidone was employed as the positive control.
(§3) 10 μL of CCK-8 solution ( 1/10 of the volume of the culture solution) was added to each well 48 hours after the administration, and incubated for 2 hours. The absorbance (A) of each well was determined by a microplate reader at 450 nm wavelength. The inhibition rate against cell proliferation for each compound was calculated based on A, wherein inhibition rate against cell proliferation (inhibition ratio, IR)=(1−value of experimental group (Ai)/value of blank control group (Ao))×100% and the IC50 value of each compound was calculated by the data processing software.

[1] = system: human lung fibroblasts HFL1; experiment: Anti-fibrosis activity test: inhibition of proliferation of human lung fibroblasts HFL1 (CCK-8); settings: Homo sapiens, HFL1, 48 h
Protocol: as §1, §2, §3
(§4) Using the same protocol for the cell experiments, the inhibitory activity of the test compounds against the proliferation of human lung fibroblasts HFL1, human hepatic stellate cells LX-2, human fibrosarcoma cells HT-1080, human dermal fibroblasts CCC-ESF-1, human embryonic lung fibroblast IMR-90, cardiac fibroblast RAT-iCell-C002 was assayed.

[2] = system: human hepatic stellate cells LX-2; experiment: Anti-fibrosis activity test: inhibition of proliferation of human hepatic stellate cells LX-2 (CCK-8); settings: Homo sapiens, 48 h
Protocol: as §1, §2, §3, §4

[3] = system: human fibrosarcoma cells HT-1080; experiment: Anti-fibrosis activity test: inhibition of proliferation of human fibrosarcoma cells HT-1080 (CCK-8); settings: Homo sapiens, HT-1080, 48 h
Protocol: as §1, §2, §3, §4

[4] = system: human dermal fibroblasts CCC-ESF-1; experiment: Anti-fibrosis activity test: inhibition of proliferation of human dermal fibroblasts CCC-ESF-1 (CCK-8); settings: Fibroblast
Protocol: as §1, §2, §3, §4

[5] = system: human embryonic lung fibroblast IMR-90; experiment: Anti-fibrosis activity test: inhibition of proliferation of human embryonic lung fibroblast IMR-90 (CCK-8)
Protocol: as §1, §2, §3, §4

[6] = system: cardiac fibroblast RAT-iCell-C002; experiment: Anti-fibrosis activity test: inhibition of proliferation of cardiac fibroblast RAT-iCell-C002 (CCK-8)
Protocol: as §1, §2, §3, §4

[7] = system: mouse macrophages (RAW264.7); experiment: Lipopolysaccharide-induced NO secretion in macrophages (Griess); settings: RAW264.7, LPS 1 μg/ml, a/b isomers given as first/second symbol, read-out: IC50 (μM), inhibition of lipopolysaccharide-induced NO secretion in macrophages
Protocol: The effects of the compounds of the present application on the lipopolysaccharide-induced NO secretion in macrophage was tested Principle: Anti-inflammatory drug activity screening is to detect the inhibitory effect of compounds on NO production in the mouse macrophages (RAW264.7). When immune cells are stimulated by microbial endotoxin, inflammatory mediators, etc., a large amount of induced NO synthase (iNOS) is produced, and thus NO is generated for immune response. Accordingly, the inhibition of NO production can serve as a direct indicator of the anti-inflammatory activity of the compound. The activity of the compound to inhibit NO production at the cellular level is directly evaluated in the abovementioned test model, thereby reflecting the anti-inflammatory activity of the compound. In this experiment, the content of NO in the medium was detected by Gris kit (Molecular probes, G-7921). Macrophages (Raw264.7) were cultured in DMEM medium containing 10% fetal bovine serum, with the cell concentration adjusted. The cells were seeded in 24-well cell culture plates, cultured in an incubator, and the test samples in different concentrations were added every other day. The blank medium was used as a blank control, and commercially available indomethacin and resveratrol were employed as positive controls. After the addition of lipopolysaccharide (LPS, 1 μg/ml), incubation was performed for 24 hours. Then the supernatant culture solution was taken, to […] reagent was added, and the absorbance value was measured by a microplate reader at 548 nm. Inhibition rate=([…])×100%.

[8] = CCK-8, 48 hours after administration
[9] = human lung fibroblasts HFL1, CCK-8, 48 hours
[10] = human hepatic stellate cells LX-2, CCK-8, 48 hours
[11] = human fibrosarcoma cells HT-1080, CCK-8, 48 hours
[12] = human dermal fibroblasts CCC-ESF-1, CCK-8, 48 hours
[13] = human embryonic lung fibroblast IMR-90, CCK-8, 48 hours
[14] = Cardiac fibroblast, 48 h, cardiac fibroblast RAT-iCell-C002, CCK-8, 48 hours
[15] = cardiac fibroblast RAT-iCell-C002, CCK-8, 48 hours
[16] = Homo sapiens, CCC-ESF-1 cells, 48 h, CCK-8
[17] = Homo sapiens, IMR-90 cells, 48 h, CCK-8
[18] = Cardiac fibroblast, 48 h, RAT-iCell-C002 cells, CCK-8

SMILES | IC50 (BHK-21 cells; [8]) | IC50 [1, 9] | IC50 [2, 10] | IC50 [3, 11] | IC50 [4, 12] | IC50 [5, 13] | IC50 [6, 14] | IC50 ([7]; Mus musculus, RAW264.7, 24 h) | IC50 [6, 15] | IC50 ([7]; 24 hours) | IC50 (BHK-21 cells; 48 h, CCK-8) | IC50 ([1]; HFL1 cells, 48 h, CCK-8) | IC50 ([2]; LX-2, 48 h, LX-2 cells, CCK-8) | IC50 ([3]; HT-1080 cells, 48 h, CCK-8) | IC50 [4, 16] | IC50 [5, 17] | IC50 [6, 18]
N#Cc1cccc2c(OCc3ccc(F)cc3)c3c(nc12)-c1cccn1C3=O [Compound 449b, 9-((4-fluorobenzyl)oxy)-10-oxo-10H-pyrrolizino[1,2-b]quinoline-5-carbonitrile] | 0.05 to 5 mM | 0.05 to 5 mM | 0.05 to 5 mM | 0.05 to 5 mM | 0.05 to 5 mM | 0.05 to 5 mM | 0.05 to 5 mM | 1 to 10 µM | – | – | – | – | – | – | – | – | –
O=C1c2c([nH]c3ccc(Cl)cc3c2=O)-c2cccn21 [Compound 180a, 7-Chloro-9H-pyrrolizino[1,2-b]quinoline-9,10(4H)-dione] | 20 to 100 mM | 0.05 to 5 mM | 0.05 to 5 mM | 0.05 to 5 mM | 0.05 to 5 mM | 0.05 to 5 mM | 0.05 to 5 mM | 1 to 10 µM | – | – | – | – | – | – | – | – | –
O=C1c2c(nc3cc(Cl)ccc3c2O)-c2cccn21 [Compound 500b, 6-chloro-9-hydroxy-10H-pyrrolizino[1,2-b]quinolin-10-one] | 0.05 to 5 mM | 0.05 to 5 mM | 0.05 to 5 mM | 0.05 to 5 mM | 0.05 to 5 mM | 0.05 to 5 mM | 0.05 to 5 mM | 1 to 10 µM | – | – | – | – | – | – | – | – | –
O=C1c2c(n(Cc3ccc(Cl)cc3)c3c(F)cccc3c2=O)-c2cccn21 [Compound 453a, 4-(4-Chlorobenzyl)-5-fluoro-9H-pyrrolizino[1,2-b]quinoline-9,10(4H)-dione] | 0.05 to 5 mM | 0.05 to 5 mM | 0.05 to 5 mM | 0.05 to 5 mM | 0.05 to 5 mM | 0.05 to 5 mM | 0.05 to 5 mM | 0.1 to 1 µM | – | – | – | – | – | – | – | – | –
O=C1c2c(nc3c(C(F)(F)F)c(N4CCNCC4)ccc3c2OCc2ccc(Cl)cc2)-c2cccn21 [Compound 487b, 9-((4-chlorobenzyl)oxy)-6-(piperazin-1-yl)-5-(trifluoromethyl)-10H-pyrrolizino[1,2-b]quinolin-10-one] | – | – | – | – | – | – | – | – | 0.05 to 5 mM | 10 to 50 µM | – | – | – | – | – | – | –
O=C1c2c(n(Cc3ccc(Cl)cc3)c3c(C(F)(F)F)c(N4CCNCC4)ccc3c2=O)-c2cccn21 [Compound 487a, 4-(4-Chlorobenzyl)-6-(piperazin-1-yl)-5-(trifluoromethyl)-9H-pyrrolizino[1,2-b]quinoline-9,10(4H)-dione] | – | – | – | – | – | – | – | – | < 0.05 mM | 0.1 to 1 µM | – | – | – | – | – | – | –
COc1ccc2c(c1)c(CC(=O)O)c(C)n2C(=O)c1ccc(Cl)cc1 [indomethacin, reference compound] | – | – | – | – | – | – | – | 10 to 50 µM | – | – | – | – | – | – | – | – | –
Oc1ccc(C=Cc2cc(O)cc(O)c2)cc1 [resveratrol, reference compound] | – | – | – | – | – | – | – | 1 to 10 µM | – | – | – | – | – | – | – | – | –
O=C1c2c(n(Cc3ccc(F)cc3)c3cc(N4CCNCC4)cc(F)c3c2=O)-c2cccn21 [Compound 646a, 8-Fluoro-4-(4-fluorobenzyl)-6-(piperazin-1-yl)-9H-pyrrolizino[1,2-b]quinoline-9,10(4H)-dione] | 0.05 to 5 mM | 0.05 to 5 mM | 0.05 to 5 mM | 0.05 to 5 mM | 0.05 to 5 mM | 0.05 to 5 mM | 0.05 to 5 mM | – | – | – | – | – | – | – | – | – | –
Cc1ccc2n1C(=O)c1c-2[nH]c2ccccc2c1=O [Compound 800a, 1-Methyl-9H-pyrrolizino[1,2-b]quinoline-9,10(4H)-dione] | – | – | – | – | – | – | – | – | – | – | 0.05 to 5 mM | 0.05 to 5 mM | 0.05 to 5 mM | 0.05 to 5 mM | 0.05 to 5 mM | 0.05 to 5 mM | 0.05 to 5 mM
O=C1c2c(nc3cc(N4CCNCC4)c(F)cc3c2OCc2ccc(F)cc2)-c2cccn21 [Compound 634b, 7-fluoro-9-((4-fluorobenzyl)oxy)-6-(piperazin-1-yl)-10H-pyrrolizino[1,2-b]quinolin-10-one] | 0.05 to 5 mM | 0.05 to 5 mM | 0.05 to 5 mM | 0.05 to 5 mM | 0.05 to 5 mM | 0.05 to 5 mM | 0.05 to 5 mM | – | – | – | – | – | – | – | – | – | –
CC(C)CCn1c2c(c(=O)c3cc(F)ccc31)C(=O)n1cccc1-2 [Compound 105a, 7-Fluoro-4-isopentyl-9H-pyrrolizino[1,2-b]quinoline-9,10(4H)-dione] | 0.05 to 5 mM | 0.05 to 5 mM | 0.05 to 5 mM | 0.05 to 5 mM | 0.05 to 5 mM | 0.05 to 5 mM | 0.05 to 5 mM | – | – | – | – | – | – | – | – | – | –
N#Cc1cc2c(=O)c3c(n(Cc4ccc(Cl)cc4)c2cc1N1CCNCC1)-c1cccn1C3=O [Compound 640a, 4-(4-Chlorobenzyl)-9,10-dioxo-6-(piperazin-1-yl)-4,10-dihydro-9H-pyrrolizino[1,2-b]quinoline-7-carbonitrile] | 0.05 to 5 mM | 0.05 to 5 mM | 0.05 to 5 mM | 0.05 to 5 mM | 0.05 to 5 mM | 0.05 to 5 mM | 0.05 to 5 mM | – | – | – | – | – | – | – | – | – | –
CC(C)CCOc1c2c(nc3ccc(F)cc13)-c1cccn1C2=O [Compound 105b, 7-fluoro-9-(isopentyloxy)-10H-pyrrolizino[1,2-b]quinolin-10-one] | 0.05 to 5 mM | 0.05 to 5 mM | 0.05 to 5 mM | 0.05 to 5 mM | 0.05 to 5 mM | 0.05 to 5 mM | 0.05 to 5 mM | – | – | – | – | – | – | – | – | – | –
O=C1c2c(nc3cc(N4CCNCC4)c(F)cc3c2O)-c2cccn21 [Compound 346b, 7-fluoro-9-hydroxy-6-(piperazin-1-yl)-10H-pyrrolizino[1,2-b]quinolin-10-one] | 0.05 to 5 mM | 0.05 to 5 mM | 0.05 to 5 mM | 0.05 to 5 mM | 0.05 to 5 mM | 0.05 to 5 mM | 0.05 to 5 mM | – | – | – | – | – | – | – | – | – | –
Cc1ccc2n1C(=O)c1c-2nc2ccccc2c1O [Compound 800b, 9-hydroxy-1-methyl-10H-pyrrolizino[1,2-b]quinolin-10-one] | – | – | – | – | – | – | – | – | – | – | 0.05 to 5 mM | 0.05 to 5 mM | 0.05 to 5 mM | 0.05 to 5 mM | 0.05 to 5 mM | 0.05 to 5 mM | 0.05 to 5 mM
N#Cc1cc2c(OCc3ccc(-c4ccccc4)cc3)c3c(nc2cc1N1CCNCC1)-c1cccn1C3=O [Compound 643b, 9-([1,1′-biphenyl]-4-ylmethoxy)-10-oxo-6-(piperazin-1-yl)-10H-pyrrolizino[1,2-b]quinoline-7-carbonitrile] | 0.05 to 5 mM | 0.05 to 5 mM | 0.05 to 5 mM | < 0.05 mM | 0.05 to 5 mM | 0.05 to 5 mM | 0.05 to 5 mM | – | – | – | – | – | – | – | – | – | –
O=C1c2c(nc3cc(N4CCNCC4)c(F)cc3c2OCc2ccc(Cl)cc2)-c2cccn21 [Compound 632b, 9-((4-chlorobenzyl)oxy)-7-fluoro-6-(piperazin-1-yl)-10H-pyrrolizino[1,2-b]quinolin-10-one] | 0.05 to 5 mM | 0.05 to 5 mM | 0.05 to 5 mM | 0.05 to 5 mM | 0.05 to 5 mM | 0.05 to 5 mM | 0.05 to 5 mM | – | – | – | – | – | – | – | – | – | –
N#Cc1cc2c(OCc3ccc(C(F)(F)F)cc3)c3c(nc2cc1N1CCNCC1)-c1cccn1C3=O [Compound 642b, 10-oxo-6-(piperazin-1-yl)-9-((4-(trifluoromethyl)benzyl)oxy)-10H-pyrrolizino[1,2-b]quinoline-7-carbonitrile] | 0.05 to 5 mM | 0.05 to 5 mM | 0.05 to 5 mM | 0.05 to 5 mM | 0.05 to 5 mM | 0.05 to 5 mM | 0.05 to 5 mM | – | – | – | – | – | – | – | – | – | –
